From patent US20230293412A1, “SHAMPOOS AND METHODS OF PREPARING AND USING THE SAME” (SHANDONG BENZHEN COSMETICS CO., LTD, priority 2020, published 2023) come the findings set out here.

Where only a bound is given, the exact number is not on record here.

One data set deals with fish. In words: Fish acute toxicity test of surfactants. Conditions: fish in aqueous solution of surfactant diluted 6000 times, 25° C. The class given is in vivo. The protocol: (§1) Test method. The experimental environment is at a constant temperature of 25° C., the surfactants is diluted 200 and 6000 times with triple distilled water. The surface tension is tested by JY-200C full-automatic interfacial tensiometer, referring to (GB5545 Surfactant Determination of surface tension by pulling up liquid film). The fish acute toxicity test is carried out tin the aqueous solution diluted 6000 times with surfactant, referencing to (GB/T 21281-2007 fish acute toxicity test classification test method of hazardous chemicals).
As to `CCCCCCCCCCCC(=O)N(C)CC(=O)[O-].[Na+]` [Shampoo 4202, Sodium lauroyl sarcosinate (30%)], the survival time is above 1440 min.

With Alkyl glycoside (C8-C10) [APG1], the survival time was found to be 33 min.

Turning to Alkyl glycoside (C12-C14) [APG2], the survival time came to 25 min.

The compound Alkyl glycoside (import) [APGj] showed a survival time of 25 min.

Consider “Coconut oil fatty acid diethanolamide [Shampoo 6501]”, for which the survival time was 44 min.

“Fatty alcohol polyoxyethylene ether [AEO-3]” displayed a survival time of 27 min.

“Fatty alcohol polyoxyethylene ether [AEO-7]” came in with a survival time of 21 min.

For “Fatty alcohol polyoxyethylene ether [AEO-9]”, the survival time worked out at 18 min.

On to Imidazoline (import) [ZMLj], for which the survival time was 64 min.

Imidazoline [MZL] yielded a survival time of 134 min.

In turn, “Lauramide propyl amine oxide [Shampoo 4501]” gave a survival time of 15 min.

In turn, Methyl glucose dioleate [DOE-120] gave a survival time above 1440 min.

Sodium Cocoyl Isethionate-85 [SCI-85] returned a survival time of 24 min.

Take “Sodium dodecyl ether phosphate [Shampoo 1211]”: the survival time came to 284 min.

Consider Sodium secondary alkyl sulfonate [SAS], for which the survival time turned out to be 41 min.

For Sulfobetaine [ASB], the survival time was determined as 42 min.

As to cocamidopropyl betaine [CAB], the survival time is 27 min.

The same data set, now with this note: fish in surfactant solution at 1:6000.
For the compound `CCCCCCCCCCCC(=O)N(C)CC(=O)[O-].[Na+]` [Shampoo 4202, Sodium lauroyl sarcosinate (30%)], the fish survival was found to be 24 h.

As to Methyl glucose dioleate [DOE-120], the fish survival was 24 h.

Test system in another data set: not listed separately
Nature of the data set: Surface tension of surfactants diluted 200 and 6000 times. It counts as physicochemical. Conditions: surfactant diluted 200 times with triple distilled water, 25° C. The protocol: We classify surfactants into three types: anionic surfactants, zwitterionic surfactants, and nonionic surfactants. Experimental studies on the surface tension and acute toxicity of fish were conducted on the above-mentioned main surfactants and other kinds of surfactants used in shampoo, bath and other care products.
as §1
For `CCCCCCCCCCCC(=O)N(C)CC(=O)[O-].[Na+]` [Shampoo 4202, Sodium lauroyl sarcosinate (30%)], the “Surface tension 1:200” value is given as 27.9 mN/m.

With `CCCCCCCCCCCCOS(=O)(=O)[O-].[Na+]` [Shampoo K12, Sodium lauryl sulfate], the “Surface tension 1:200” value amounted to 35.0 mN/m.

As to `CCCCCCCCCCCCOS(=O)(=O)O.N` [Shampoo K12-A, ammonium lauryl sulfate], the “Surface tension 1:200” value is 26.7 mN/m.

With Alkyl glycoside (C8-C10) [APG1], the “Surface tension 1:200” value worked out at 28.3 mN/m.

As for Alkyl glycoside (C12-C14) [APG2], the “Surface tension 1:200” value is 28.2 mN/m.

As to Alkyl glycoside (import) [APGj], the “Surface tension 1:200” value amounted to 28.1 mN/m.

For “Coconut oil fatty acid diethanolamide [Shampoo 6501]”, the “Surface tension 1:200” value turned out to be 26.0 mN/m.

As for “Fatty alcohol polyoxyethylene ether [AEO-3]”, the “Surface tension 1:200” value was determined as 27.2 mN/m.

With “Fatty alcohol polyoxyethylene ether [AEO-7]”, the “Surface tension 1:200” value worked out at 27.6 mN/m.

Consider “Fatty alcohol polyoxyethylene ether [AEO-9]”, for which the “Surface tension 1:200” value is 30.2 mN/m.

Imidazoline (import) [ZMLj]: the “Surface tension 1:200” value is on record as 28.5 mN/m.

Imidazoline [MZL]: the “Surface tension 1:200” value is reported as 29.1 mN/m.

With “Lauramide propyl amine oxide [Shampoo 4501]”, the “Surface tension 1:200” value came out at 30.5 mN/m.

In the case of Methyl glucose dioleate [DOE-120], the “Surface tension 1:200” value is 42.6 mN/m.

Sodium Cocoyl Isethionate-85 [SCI-85]: the “Surface tension 1:200” value was found to be 30.6 mN/m.

“Sodium dodecyl ether phosphate [Shampoo 1211]”: the “Surface tension 1:200” value is listed as 35.2 mN/m.

For Sodium secondary alkyl sulfonate [SAS], the “Surface tension 1:200” value came out at 31.3 mN/m.

Consider Sodium α-alkenyl sulfonate [AOS], for which the “Surface tension 1:200” value was determined as 31.8 mN/m.

Consider Sulfobetaine [ASB], for which the “Surface tension 1:200” value came to 35.3 mN/m.

As to ammonium laureth ether sulfate [AES-A], the “Surface tension 1:200” value turned out to be 34.9 mN/m.

In the case of cocamidopropyl betaine [CAB], the “Surface tension 1:200” value came out at 31.3 mN/m.

For the compound sodium laureth ether sulfate [AES], the “Surface tension 1:200” value worked out at 36.4 mN/m.

Staying with this data set, now noted: surfactant diluted 6000 times with triple distilled water, 25° C.
As for `CCCCCCCCCCCC(=O)N(C)CC(=O)[O-].[Na+]` [Shampoo 4202, Sodium lauroyl sarcosinate (30%)], the “Surface tension 1:6000” value was 64.8 mN/m.

Take `CCCCCCCCCCCCOS(=O)(=O)[O-].[Na+]` [Shampoo K12, Sodium lauryl sulfate]: the “Surface tension 1:6000” value was determined as 40.8 mN/m.

Regarding `CCCCCCCCCCCCOS(=O)(=O)O.N` [Shampoo K12-A, ammonium lauryl sulfate], the “Surface tension 1:6000” value came out at 38.9 mN/m.

Consider Alkyl glycoside (C8-C10) [APG1], for which the “Surface tension 1:6000” value amounted to 47.3 mN/m.

Consider Alkyl glycoside (C12-C14) [APG2], for which the “Surface tension 1:6000” value was 28.5 mN/m.

On to Alkyl glycoside (import) [APGj], for which the “Surface tension 1:6000” value came to 28.6 mN/m.

In the case of “Coconut oil fatty acid diethanolamide [Shampoo 6501]”, the “Surface tension 1:6000” value is given as 27.6 mN/m.

On to “Fatty alcohol polyoxyethylene ether [AEO-3]”, for which the “Surface tension 1:6000” value is 27.3 mN/m.

Turning to “Fatty alcohol polyoxyethylene ether [AEO-7]”, the “Surface tension 1:6000” value stood at 29.3 mN/m.

As to “Fatty alcohol polyoxyethylene ether [AEO-9]”, the “Surface tension 1:6000” value turned out to be 30.4 mN/m.

Imidazoline (import) [ZMLj]: the “Surface tension 1:6000” value is reported as 31.3 mN/m.

Take Imidazoline [MZL]: the “Surface tension 1:6000” value worked out at 45.5 mN/m.

For the compound “Lauramide propyl amine oxide [Shampoo 4501]”, the “Surface tension 1:6000” value came out at 31.2 mN/m.

With Methyl glucose dioleate [DOE-120], the “Surface tension 1:6000” value came to 49.4 mN/m.

Take Sodium Cocoyl Isethionate-85 [SCI-85]: the “Surface tension 1:6000” value stood at 42.8 mN/m.

Regarding “Sodium dodecyl ether phosphate [Shampoo 1211]”, the “Surface tension 1:6000” value was 40.5 mN/m.

Take Sodium secondary alkyl sulfonate [SAS]: the “Surface tension 1:6000” value is 41.5 mN/m.

On to Sodium α-alkenyl sulfonate [AOS], for which the “Surface tension 1:6000” value worked out at 41.8 mN/m.

For the compound Sulfobetaine [ASB], the “Surface tension 1:6000” value is listed as 47.5 mN/m.

For the compound ammonium laureth ether sulfate [AES-A], the “Surface tension 1:6000” value stood at 32.9 mN/m.

In the case of cocamidopropyl betaine [CAB], the “Surface tension 1:6000” value amounted to 32.4 mN/m.

As for sodium laureth ether sulfate [AES], the “Surface tension 1:6000” value was found to be 36.2 mN/m.
